We go through two compounds from patent US12534552B2, “Antibacterial polymer” (LG Chem, Ltd., priority 2020, dated 2026).

For data set [1], the system named is Proteus Mirabilis (ATCC 29906). The experiment in a line: Antibacterial Test 1: bacterial growth inhibition rate by absorbance at 600 nm. It counts as cell-based. As to conditions: 0.1 g sample in 25 ml nutrient broth, 3000 CFU/ml, 37° C., 16 hours. The method, then:
Antibacterial tests were performed on the antibacterial polymers prepared in Examples and Comparative Examples. Specifically, in the antibacterial test, the bacterial growth inhibition rate (%) was measured by the following method. In addition, the bacterial growth inhibition rate (%) of Icaridin and Menthol acrylate as single molecules was also measured by the same method and shown as Comparative Examples 2 and 3.
0.1 g of the antibacterial polymer prepared above was added to 25 ml of nutrient broth culture medium inoculated with the test bacterium Proteus Mirabilis (ATCC 29906) at 3000 CFU/ml, and then incubated in a shaking incubator (VS-37SIF, produced by Visiontech) at 37° C. for 16 hours. The absorbance at 600 nm wavelength of the cultured solution was measured using a UV-Vis Spectrophotometer (Optizen POP, produced by K Lab). In addition, in a pure culture medium containing no antibacterial polymer, a solution prepared by culturing Proteus Mirabilis (ATCC 29906) at 37° C. for 16 hours was prepared as a control group, and the absorbance at a 600 nm wavelength was measured by the same manner as above. Using the measurement result, the bacterial growth inhibition rate (%) of Proteus Mirabilis (ATCC 29906) was calculated according to Equation 1 below, and the results are shown in Table 1 below. […]

The test system of the next data set is E. Coli. The experiment in a line: Antibacterial Test 2: bacterial reduction rate, ASTM E 2149 test method. As to conditions: 0.2 g sample, 10 mL PBS with E. Coli, 37° C., colony count; for 1 hour-bacterial reduction rate: 1 hour-contact; for 24 hour-bacterial reduction rate: 24 hour-contact. The class given is cell-based, Escherichia coli. The method, then: Antibacterial tests were performed on the antibacterial polymers prepared in Examples and Comparative Examples. Specifically, based on the ASTM E 2149 antibacterial test method, the bacterial reduction rate (%) was measured by the following method. In addition, the bacterial reduction rates (%) of Icaridin and Menthol acrylate as single molecules was also measured by the same method and shown as Comparative Examples 2 and 3.
The sample (0.2 g) was placed in a 50 mL conical tube, to which 1× PBS (10 mL) inoculated with E. Coli (1.5×10^5 CFU/mL) was added, and cultured for 1 hour and 24 hours in a shaking incubator at 37° C., so as to allow the bacteria and the material to come into sufficient contact with each other. In order to check the colony of E. coli in the cultured sample, the sequentially diluted solution was spread on a TSA Agar plate, and then cultured for 16 hours so as to form colonies in an incubator at 30° C. The degree of bacterial culture was grasped from the number of colonies formed, and the antibacterial performance was compared.
In the above equation, Cs is the number of microorganisms (CFU/ml) in the experimental group, which can be confirmed as the number of colonies formed on the TSA Agar plate, and C0 is the number of microorganisms in the control group, which means the number of E. Coli in PBS to which the sample was not added.

The nature of data set [2]: Comparison of thermal decomposition behavior by TGA of PMMA blends. The class given is physicochemical. To be noted: TGA step 4, 50° C. to 600° C., 10° C./min, nitrogen; 40 parts by weight in 100 parts PMMA. The method, then: Poly(Methyl methacrylate) (TCI Chemical, CAS RN: 9011-14-7) was put into a Mixed Torque Rheometer (HAPRO), and then the temperature was raised to 160° C. and the mixture was mixed for 5 minutes. PIA-2 and icaridin were added in an amount of 40 parts by weight based on 100 parts by weight of poly(methyl methacrylate), respectively, mixed at a temperature of 160° C. for 30 minutes, and then cooled to room temperature to obtain a sample.
In order to confirm the thermal decomposition behavior of the prepared sample, experiments were performed as shown in Table 2 below using TGA (Thermogravimetric Analyzer, TA Instrument, DISCOVERY TGA 550 W/MFC & AUTO).

Consider `CCC(C)OC(=O)N1CCCCC1CCO` (stereo not shown) [compound 2, Icaridin], for which the “Bacterial growth inhibition rate” value in data set [1] is listed as 11.24%. For the same compound, in the data set with E. Coli, the “1 hour-bacterial reduction rate” value turned out to be 3.17% and the “24 hour-bacterial reduction rate” value is recorded as 13.89%. Further, the “Thermal decomposition behavior / heat resistance” value in data set [2] was “proceeds decomposition from a lower temperature than that of PIA-2”.
`C=CC(=O)OC1CC(C)CCC1C(C)C` (stereo not shown) [compound 3, Menthol acrylate]: the “Bacterial growth inhibition rate” value in data set [1] is recorded as 0.2%. In the data set with E. Coli, the “1 hour-bacterial reduction rate” value stood at 0% and the “24 hour-bacterial reduction rate” value stood at 0%.
